In patent US7172751B2, “D-amino acid peptides” (Immunomedics, Inc., priority 2003, dated 2007):
*1 amine or outer side, *2 acyl side, *3 side chain or, on linkers, in order; H or OH if unused. Where a SMILES comes first, the peptide text is derived from it. Side-chain parts run from the residue outwards. [ ]: non-standard residue; d: D form. The star is where a group is joined. DOTA = O=C(O)CN1CCN(CC(=O)O)CCN(CC(=O)*)CCN(CC(=O)O)CC1; NH(2-(imidazol-4-yl)ethyl) = c1ncc(CCN*)[nH]1; Suc = O=C(CCC(=O)[*:2])[*:1]

Tests used:
[1] = tested on: GW-39 human colonic xenograft tumors; assay: Biodistribution of 111In IMP 237 in mice pretargeted with hMN-14×m679; assay type: in vivo; conditions: pretargeting
From the text: The animals were sacrificed at 3, 24, 48 hr post injection. The tumor to non-tumor ratios of the peptides in the pretargeting study are show in Table 2.

[2] = Method: A mixture of the labeled peptide and mouse serum was made and incubated at 37° C. The mouse serum was fresh nude mouse serum obtained from (GSCC on the same day). The Indium-labeled peptide solution (50 μL) and 450 μL of the mouse serum were combined and vortexed. This was incubated at 37° C. for 18.0 hrs. Injections were made into the reverse phase HPLC at t0=0 hrs and t1=18.0 hrs.
Aliquots were withdrawn at various time points and examined by reverse phase HPLC and by size exclusion HPLC.
The peptide was monitored as described above by HPLC.

[3] = Pretargeting biodistribution of 111In-IMP 241, 281, 284 after 125I-hMN-14×m679; conditions: NCr nude, mouse, in vivo, total radioactivity
From the text: NCr nudes: (NCI) from Taconic, 4 weeks of age
At the times shown above, 5 mice per time point will be necropsied. Tissues (tumor, liver, spleen, kidney, lungs, blood, stomach, large and small intestines) will be isolated, weighed and counted in the appropriate windows.

## NC(=O)[C@H](CCCCNC(=O)CNC(=O)CCC(=O)NCCc1cnc[nH]1)NC(=O)[C@H](Cc1ccc(O)cc1)NC(=O)[C@H](CCCCNC(=O)CNC(=O)CCC(=O)NCCc1cnc[nH]1)NC(=O)[C@H](Cc1ccccc1)NC(=O)CN1CCN(CC(=O)O)CCN(CC(=O)O)CCN(CC(=O)O)CC1 [IMP 237, DOTA-Phe-Lys(HSG)-Tyr-Lys(HSG)-NH2] ({DOTA}-FK([Gly-Suc-NH(2-(imidazol-4-yl)ethyl)])YK([Gly-Suc-NH(2-(imidazol-4-yl)ethyl)])-NH2)
[1]; Blood, 3 hr After 111In
  % Injected/g Tissue: 2.42 ± 0.61 % Injected/g Tissue
[1]; Blood, 24 hr After 111In
  % Injected/g Tissue: 0.73 ± 0.17 % Injected/g Tissue
[1]; Blood, 48 hr After 111In
  % Injected/g Tissue: 0.17 ± 0.06 % Injected/g Tissue
[1]; GW-39, 3 hr After 111In
  % Injected/g Tissue: 7.25 ± 2.79 % Injected/g Tissue
[1]; GW-39, 24 hr After 111In
  % Injected/g Tissue: 8.38 ± 1.70 % Injected/g Tissue
[1]; GW-39, 48 hr After 111In
  % Injected/g Tissue: 5.39 ± 1.46 % Injected/g Tissue
[1]; Kidney, 3 hr After 111In
  % Injected/g Tissue: 3.59 ± 0.75 % Injected/g Tissue
[1]; Kidney, 24 hr After 111In
  % Injected/g Tissue: 2.24 ± 0.40 % Injected/g Tissue
[1]; Kidney, 48 hr After 111In
  % Injected/g Tissue: 1.27 ± 0.33 % Injected/g Tissue
[1]; Lg. Int., 24 hr After 111In
  % Injected/g Tissue: 0.17 ± 0.03 % Injected/g Tissue
[1]; Lg. Int., 48 hr After 111In
  % Injected/g Tissue: 0.13 ± 0.03 % Injected/g Tissue
[1]; Liver, 3 hr After 111In
  % Injected/g Tissue: 0.58 ± 0.13 % Injected/g Tissue
[1]; Liver, 24 hr After 111In
  % Injected/g Tissue: 0.62 ± 0.09 % Injected/g Tissue
[1]; Liver, 48 hr After 111In
  % Injected/g Tissue: 0.61 ± 0.16 % Injected/g Tissue
[1]; Lungs, 3 hr After 111In
  % Injected/g Tissue: 1.19 ± 0.26 % Injected/g Tissue
[1]; Lungs, 24 hr After 111In
  % Injected/g Tissue: 0.44 ± 0.10 % Injected/g Tissue
[1]; Lungs, 48 hr After 111In
  % Injected/g Tissue: 0.22 ± 0.06 % Injected/g Tissue
[1]; Sm. Int., 3 hr After 111In
  % Injected/g Tissue: 0.65 ± 0.74 % Injected/g Tissue
[1]; Sm. Int., 24 hr After 111In
  % Injected/g Tissue: 0.18 ± 0.03 % Injected/g Tissue
[1]; Sm. Int., 48 hr After 111In
  % Injected/g Tissue: 0.11 ± 0.02 % Injected/g Tissue
[1]; Spleen, 3 hr After 111In
  % Injected/g Tissue: 0.50 ± 0.14 % Injected/g Tissue
[1]; Spleen, 24 hr After 111In
  % Injected/g Tissue: 0.71 ± 0.16 % Injected/g Tissue
[1]; Spleen, 48 hr After 111In
  % Injected/g Tissue: 0.57 ± 0.15 % Injected/g Tissue
[1]; Stomach, 3 hr After 111In
  % Injected/g Tissue: 0.18 ± 0.03 % Injected/g Tissue
[2]
  converted to the shorter retention time peak: about 70%

## NC(=O)[C@H](CCCCNC(=O)CNC(=O)CCC(=O)NCCc1cnc[nH]1)NC(=O)[C@@H](Cc1ccc(O)cc1)NC(=O)[C@H](CCCCNC(=O)CNC(=O)CCC(=O)NCCc1cnc[nH]1)NC(=O)[C@H](Cc1ccccc1)NC(=O)CN1CCN(CC(=O)O)CCN(CC(=O)O)CCN(CC(=O)O)CC1 [IMP 241, DOTA-Phe-Lys(HSG)-D-Tyr-Lys(HSG)-NH2, reference compound] ({DOTA}-FK([Gly-Suc-NH(2-(imidazol-4-yl)ethyl)])[dY]K([Gly-Suc-NH(2-(imidazol-4-yl)ethyl)])-NH2)
[3]
  tissue uptake at 24 h: 0.28 %ID/g
[2]
  decomposed in mouse serum: ~5%
